The results in this text go back to patent US10227349B2, “Pyrazolo[1,5-a]pyrimidine compound” (Eisai R&D Management Co., Ltd., priority 2016, dated 2019).

Experiment [1] deals with T1, PAR2 (Homo sapiens, UniProt P55085).
T1 construct: Human embryonic kidney cell line HEK293 cells cultured using DMEM culture medium; endogenous in cells; host or cells: HEK293
T1 sequence (P55085 26-397): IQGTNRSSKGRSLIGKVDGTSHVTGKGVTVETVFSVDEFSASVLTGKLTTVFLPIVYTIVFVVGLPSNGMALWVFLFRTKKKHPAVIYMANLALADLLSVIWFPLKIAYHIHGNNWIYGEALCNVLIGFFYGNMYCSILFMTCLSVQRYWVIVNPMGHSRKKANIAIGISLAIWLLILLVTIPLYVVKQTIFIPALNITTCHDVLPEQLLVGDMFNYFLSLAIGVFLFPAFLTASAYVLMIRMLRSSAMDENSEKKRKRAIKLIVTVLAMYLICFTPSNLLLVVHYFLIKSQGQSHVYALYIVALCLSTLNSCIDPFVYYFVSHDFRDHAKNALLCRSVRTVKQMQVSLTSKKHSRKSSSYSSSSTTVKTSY
Put plainly: Intracellular calcium concentration measurement (trypsin-induced calcium elevation, FDSS6000). Type of experiment: cell-based. Particulars: HEK293 cells, trypsin 5 U/mL as agonist, test compound added 30 min before measurement; read-out: Inhibitory activity on intracellular calcium elevation (IC50 (nM)). Summed up: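 HEK293 cells grown overnight in 3% FBS on collagen-coated plates were loaded for 1 h with FLIPR calcium dye in Hanks–20 mM HEPES, pH 7.4. The calcium fluorescence change was recorded on FDSS6000 for 120 s at 37 °C.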
For orientation: Calcium flux is commonly read through the fluorescence of an indicator in the cells.

The target in experiment [2] is T2, PAR2 (Mus musculus, UniProt P55086).
T2 construct: orally administered to C57BL/6J male mice (Charles River), 6-10 weeks of age; tissue Charles River; host or cells: Living C57BL/6J male mice (in vivo; saliva secretion)
T2 sequence (P55086 26-399): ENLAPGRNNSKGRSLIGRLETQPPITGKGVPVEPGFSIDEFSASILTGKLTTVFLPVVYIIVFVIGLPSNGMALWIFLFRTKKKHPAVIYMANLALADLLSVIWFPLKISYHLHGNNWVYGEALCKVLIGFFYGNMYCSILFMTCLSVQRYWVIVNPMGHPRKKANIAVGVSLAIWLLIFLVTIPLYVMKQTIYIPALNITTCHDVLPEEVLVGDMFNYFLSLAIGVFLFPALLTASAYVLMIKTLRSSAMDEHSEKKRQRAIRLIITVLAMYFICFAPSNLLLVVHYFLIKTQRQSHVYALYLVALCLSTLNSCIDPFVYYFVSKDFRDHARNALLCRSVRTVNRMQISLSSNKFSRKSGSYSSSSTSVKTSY
Kind of experiment: Measurement of PAR2 agonist (SLIGRL-NH2)-induced salivation in mouse. Type of experiment: in vivo. Particulars: C57BL/6J male mice, 0.3 mg/mL solution 10 mL/kg orally, 60 min before SLIGRL-NH2 i.p., saliva collected 10 min.

The term IC50 denotes the concentration needed to halve the response being measured. For the compound `CO[C@H]1CN(C(=O)c2cc3nc(-c4cc(F)c(Cl)c(F)c4)cc(N(C)c4c(C)cccc4F)n3n2)CC[C@H]1CC(=O)O` [Example 10, 2-((3R,4S)-1-(5-(4-chloro-3,5-difluorophenyl)-7-((2-fluoro-6-methylphenyl)(methyl)amino)pyrazolo[1,5-a]pyrimidine-2-carbonyl)-3-methoxypiperidin-4-yl)acetic acid], the IC50 at PAR2 [1] was determined as 3.46 nM. The “Inhibitory activity on the PAR2-dependent saliva secretion (%)” value at PAR2 [2] came out at 92.2%.
Turning to `C[C@@H](c1ccccc1)N(C)c1cc(-c2cc(F)c(F)c(F)c2)nc2cc(C(=O)N3CCC(CC(=O)O)CC3)nn12` [Reference Example 1, (S)-2-(1-(7-(methyl(1-phenylethyl)amino)-5-(3,4,5-trifluorophenyl)pyrazolo[1,5-a]pyrimidine-2-carbonyl)piperidin-4-yl)acetic acid, reference compound], the IC50 on PAR2 [1] stood at 8.27 nM. Moreover, at PAR2 [2], the “Inhibitory activity on the PAR2-dependent saliva secretion (%)” value is recorded as 95.9%.
